Legend:
[1] = Ex vivo biodistribution in PC-3 tumor-bearing mice; settings: male, mouse, iv, total radioactivity, 1 h post-injection, n = 4; for tissue uptake at 1 h: mice bearing PC-3 tumor xenografts; for tissue to tissue ratio at 1 h: uptake ratio
Method: All imaging and biodistribution studies were performed using male NOD.Cg-Rag1^tm1MoM II2rg^tm1WI/SzJ (NRG) mice and conducted according to the guidelines established by the Canadian Council on Animal Care and approved by Animal Ethics Committee of the University of British Columbia. For tumor inoculations, mice were anesthetized by inhalation with 2% isoflurane in oxygen and implanted subcutaneously with 5×10^6 PC-3 cells below the left shoulder. Imaging and biodistribution studies were performed only after tumors grew to 5-8 mm in diameter.
For PET/CT imaging studies, ˜3-4 MBq of the ^68Ga-labeled tracer was injected through the tail vein. Mice were allowed to recover and roam freely in the cages after injecting the tracer. At 45 min post-injection (p.i.), mice were sedated again and positioned on the scanner. First, a 10 min CT scan was conducted for localization and attenuation correction for reconstruction of PET images, before a 10 min PET image was acquired. Heating pads were used during the entire procedure to keep the mice warm. For ex vivo biodistribution studies, mice were injected with ˜1.5-3 MBq of the ^68Ga-labeled tracer. At 1 h p.i., mice were euthanized, blood was drawn from heart, and organs/tissues of interest were collected, rinsed with PBS, blotted dry, weighed, and counted using an automated gamma counter. The uptake in each organ/tissue was normalized to the injected dose and expressed as the percentage of the injected dose per gram of tissue (% ID/g).
All imaging and biodistribution studies were performed using male NOD.Cg-Rag1tm1Mom II2rgtm1WjI/SzJ (NRG) mice and conducted according to the guidelines established by the Canadian Council on Animal Care and approved by Animal Ethics Committee of the University of British Columbia. For tumor inoculations, mice were anesthetized by inhalation with 2% isoflurane in oxygen and implanted subcutaneously with 5×10^6 PC-3 cells below the left shoulder. Imaging and biodistribution studies were performed only after tumors grew to 5-8 mm in diameter.
For PET/CT imaging studies, ˜5 MBq of the ^68Ga-labeled tracer was injected through the tail vein. Mice were allowed to recover and roam freely in the cages after injecting the tracer. At 45 min post-injection (p.i.), mice were sedated again and positioned on the scanner. First, a 10 min CT scan was conducted for localization and attenuation correction for reconstruction of PET images, before a 10 min PET image was acquired. Heating pads were used during the entire procedure to keep the mice warm. For ex vivo biodistribution studies, mice were injected with ˜3 MBq of the 68Ga-labeled tracer. At 1 h p.i., mice were euthanized, blood was drawn from heart, and organs/tissues of interest were collected, rinsed with PBS, blotted dry, weighed, and counted using an automated gamma counter.

[2] = In vivo plasma stability, radio-HPLC of plasma at 15 min p.i.; settings: healthy male NRG mice (n=3), 15 min post-injection
Method: In vivo plasma stability studies were conducted for ^68Ga-labeled tracers to evaluate metabolic stability at 15 min p.i. Approximately 5.56 to 15.3 MBq of ^68Ga-LW01025, ^68Ga-LW01029, ^68Ga-LW01107, ^68Ga-LW01108, ^68Ga-LW01110, ^68Ga-LW01102, or ^68Ga-LW01142 were injected via tail vein into three male NRG mice, respectively. At 15 min p.i., mice were sedated and euthanized and their blood and urine were collected. The plasma was extracted from whole blood with ACN, vortexed, centrifuged, and the supernatant collected. The plasma and urine were analyzed with radio-HPLC (C18 analytical column; flow rate: 2.0 mL/min). The HPLC condition was same as the HPLC condition for quality control.
The in vivo studies were similarly performed according to the procedure set forth in Example 1. […] The present invention has been described with regard to one or more embodiments.

GRPR = molecular target: T1, GRPR (Homo sapiens, UniProt P30550); settings: literature (Heimbrook 1991; Lin 1995); cited from earlier work
T1 construct: endogenous in cells; host or cells: PC-3 prostate cancer cells

[3] = NRG, PC-3 tumor, Biodistribution PC3 tumor Mean
[4] = NRG, adrenal, Biodistribution Adrenal Mean
[5] = NRG, bone, Biodistribution Bone Mean
[6] = NRG, brain, Biodistribution Brain Mean
[7] = NRG, fat, Biodistribution Fat Mean
[8] = NRG, heart, Biodistribution Heart Mean
[9] = NRG, kidneys, Biodistribution Kidneys Mean
[10] = NRG, large intestine, Biodistribution Large Intestine Mean
[11] = NRG, liver, Biodistribution Liver Mean
[12] = NRG, lungs, Biodistribution Lungs Mean
[13] = NRG, muscle, Biodistribution Muscle Mean
[14] = NRG, pancreas, Biodistribution Pancreas Mean
[15] = NRG, small intestine, Biodistribution Small Intestine Mean
[16] = NRG, spleen, Biodistribution Spleen Mean
[17] = NRG, stomach, Biodistribution Stomach Mean
[18] = NRG, testes, Biodistribution Testes Mean
[19] = NRG, whole blood, Biodistribution Blood Mean

T1 sequence (P30550 whole entry): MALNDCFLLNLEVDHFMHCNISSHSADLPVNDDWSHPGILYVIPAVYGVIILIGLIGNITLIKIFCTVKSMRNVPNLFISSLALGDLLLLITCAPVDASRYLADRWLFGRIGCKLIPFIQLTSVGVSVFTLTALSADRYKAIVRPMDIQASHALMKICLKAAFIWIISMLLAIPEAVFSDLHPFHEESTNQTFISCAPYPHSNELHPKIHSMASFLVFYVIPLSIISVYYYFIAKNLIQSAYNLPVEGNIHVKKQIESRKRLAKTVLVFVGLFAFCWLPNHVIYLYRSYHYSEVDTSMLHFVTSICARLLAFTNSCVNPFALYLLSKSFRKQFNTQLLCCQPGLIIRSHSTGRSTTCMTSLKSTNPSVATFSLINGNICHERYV

Row | Molecule | tissue uptake at 1 h [1, 3] [%ID/g] | tissue uptake at 1 h [1, 4] [%ID/g] | tissue uptake at 1 h [1, 5] [%ID/g] | tissue uptake at 1 h [1, 6] [%ID/g] | tissue uptake at 1 h [1, 7] [%ID/g] | tissue uptake at 1 h [1, 8] [%ID/g] | tissue uptake at 1 h [1, 9] [%ID/g] | tissue uptake at 1 h [1, 10] [%ID/g] | tissue uptake at 1 h [1, 11] [%ID/g] | tissue uptake at 1 h [1, 12] [%ID/g] | tissue uptake at 1 h [1, 13] [%ID/g] | tissue uptake at 1 h [1, 14] [%ID/g] | tissue uptake at 1 h [1, 15] [%ID/g] | tissue uptake at 1 h [1, 16] [%ID/g] | tissue uptake at 1 h [1, 17] [%ID/g] | tissue uptake at 1 h [1, 18] [%ID/g] | tissue uptake at 1 h [1, 19] [%ID/g] | remaining intact in plasma [2] [%] | also measured
1 | CC(C)C[C@@H](CN1CSC[C@H]1C(N)=O)NC(=O)[C@H](Cc1c[nH]cn1)NC(=O)CNC(=O)[C@@H](NC(=O)[C@H](C)NC(=O)[C@H](Cc1c[nH]c2ccccc12)NC(=O)[C@H](CCC(N)=O)NC(=O)[C@@H](Cc1ccccc1)NC(=O)CN1CCC(NC(=O)CN2CCN(CC(=O)O)CCN(CC(=O)O)CCN(CC(=O)O)CC2)CC1)C(C)C [^68Ga-LW01045, metal not drawn] | 10.2 | 0.57 | 0.19 | 0.05 | 0.09 | 0.27 | 2.51 | 0.37 | 2.61 | 0.75 | 0.15 | 2.81 | 1.04 | 0.47 | 0.32 | 0.19 | 0.76 | 83.3±1.45 | 
2 | CC(C)C[C@@H](CN1CSC[C@H]1C(N)=O)NC(=O)[C@H](Cc1cnc[nH]1)NC(=O)CN(C)C(=O)[C@@H](NC(=O)[C@H](C)NC(=O)[C@H](Cc1c[nH]c2ccccc12)NC(=O)[C@H](CCC(N)=O)NC(=O)[C@@H](Cc1ccccc1)NC(=O)CN1CCC(NC(=O)CN2CCN(CC(=O)O)CCN(CC(=O)O)CCN(CC(=O)O)CC2)CC1)C(C)C [^68Ga-LW01090, metal not drawn] | 15.7 | 0.58 | 0.1 | 0.03 | 0.11 | 0.24 | 3.52 | 0.41 | 0.64 | 0.55 | 0.2 | 1.98 | 0.66 | 0.3 | 0.4 | 0.23 | 0.76 | 67.1±4.76 | tissue to tissue ratio at 1 h ([1]; NOD.Cg-Rag1tm1Mom Il2rgtm1Wjl/SzJ (NRG), tumor and kidney, Tumor/kidney Mean): 4.48; tissue to tissue ratio at 1 h ([1]; NOD.Cg-Rag1tm1Mom Il2rgtm1Wjl/SzJ (NRG), tumor and pancreas, Tumor/pancreas Mean): 7.95; tissue to tissue ratio at 1 h ([1]; NRG, PC-3 tumor / bone, Tumor/bone Mean): 175; tissue to tissue ratio at 1 h ([1]; NRG, PC-3 tumor / muscle, Tumor/muscle Mean): 82.3
3 | litorin |  |  |  |  |  |  |  |  |  |  |  |  |  |  |  |  |  |  | binding affinity to the GRPR (GRPR): very strong binding affinity
